Test results from patent US7906507B2, “Oxadiazoanthracene compounds for the treatment of diabetes” (TransTech Pharma, Inc., priority 2008, dated 2011).

Legend:
human GLP-1 receptor = target: T1, human GLP-1 receptor (Homo sapiens, UniProt P43220); experiment: Receptor binding assay: [125I]GLP-1 (aa 7-36) equilibrium radioligand binding; settings: membranes from HEK-293 or CHO cells expressing the human GLP-1 receptor; room temp 120 min
T1 construct: expressed in transfected cells; host or cells: HEK-293 or CHO cells (membranes)
T1 sequence (P43220 24-463): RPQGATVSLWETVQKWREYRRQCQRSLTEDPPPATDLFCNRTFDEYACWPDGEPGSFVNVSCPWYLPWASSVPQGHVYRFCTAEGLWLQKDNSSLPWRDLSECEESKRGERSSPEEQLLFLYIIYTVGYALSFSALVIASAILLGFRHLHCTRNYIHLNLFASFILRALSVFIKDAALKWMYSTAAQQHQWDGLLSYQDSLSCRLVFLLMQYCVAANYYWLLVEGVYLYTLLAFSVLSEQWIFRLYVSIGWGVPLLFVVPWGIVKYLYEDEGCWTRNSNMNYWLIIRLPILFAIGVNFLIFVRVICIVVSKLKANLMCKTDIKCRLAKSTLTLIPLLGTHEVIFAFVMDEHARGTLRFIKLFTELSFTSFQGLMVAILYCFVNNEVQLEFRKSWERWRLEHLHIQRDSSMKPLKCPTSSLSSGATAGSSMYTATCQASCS
Method: Reactions were carried out in 96-well plates. Compound was diluted in 20% DMSO/water. The final assay concentration ranging from 0.1 nM to 100 uM in 2% final DMSO concentration was used. […] Plates were washed 5 times with cold 25 mM Tris-HCL, pH 7.5 containing 0.05% bovine serum albumin (BSA). Following filtration, 50 uL of Microscint PS (Packard part no. 6013631) was added, plates were sealed with TopSeal-A adhesive seals (Packard part no. 6005185). ^125I isotope bound to the Unifilter-96 GF/C plates was counted using a TopCount instrument (Packard).
Percent inhibition of [^125I] […] The IC50 values were calculated by fitting the data using parameters for a sigmoidal dose response, variable slope nonlinear regression (GraphPAD Prizm, San Diego, Calif.) according to the equation: Y=Bottom+(Top-Bottom)/(1+10^((Log EC50−X)*HillSlope)) wherein, X is the logarithm of concentration and Y is the response, and Y starts at Bottom and goes to Top with a sigmoid shape. This is identical to the four parameter logistic equation.

[1] = target: T2, cloned human GLP-1 receptor (Homo sapiens, UniProt P43220); experiment: Functional cell-based assay: cAMP functional assay; settings: for Emax: 0.5 h, percentage relative to maximal GLP-1-induced cAMP accumulation, na = not active in the assay, read-out: % activation
T2 construct: expressed in transfected cells; host or cells: CHO or HEK-293 cells
T2 sequence (P43220 24-463): as above
Outline: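 Monolayer cells incubated 30 min at 37 °C with compounds (0.0001–100 μM) in IMDM containing 100 μM RO 20-1724 PDE inhibitor, 0.1% BSA and 2% DMSO. cAMP measured by HTRF.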

SMILES | % binding vs [125I]GLP-1 (human GLP-1 receptor) | EC50 [1] | Emax [1]
COc1ccc(C(=O)N2Cc3cc4c(cc3C[C@H]2C(=O)N[C@@H](Cc2ccc(-c3ccc(C#N)cc3)cc2)C(=O)O)NC(=O)C(c2ccc(OCc3ccc(Cl)c(Cl)c3)cc2)O4)cc1 (stereo partly drawn) [Example 23, (S)-3-(4′-Cyano-biphenyl-4-yl)-2-{[(S)-3-[4-(3,4-dichloro-benzyloxy)-phenyl]-6-(4-methoxy-benzoyl)-2-oxo-2,3,5,6,7,8-hexahydro-1H-4-oxa-1,6-diaza-anthracene-7-carbonyl]-amino}-propionic acid] |  | 1280 nM | 65.5%
N#Cc1ccc(-c2ccc(C[C@H](NC(=O)[C@@H]3Cc4cc5c(cc4CN3C(=O)C3CCC3)OC(c3ccc(OCc4ccc(Cl)c(Cl)c4)cc3)C(=O)N5)C(=O)O)cc2)cc1 (stereo partly drawn) [Example 12, (S)-3-(4′-Cyano-biphenyl-4-yl)-2-({(S)-6-cyclobutanecarbonyl-3-[4-(3,4-dichloro-benzyloxy)-phenyl]-2-oxo-2,3,5,6,7,8-hexahydro-1H-4-oxa-1,6-diaza-anthracene-7-carbonyl}-amino)-propionic acid] |  | 427 nM | 61%
CN1C(=O)C(c2ccc(OCc3ccc(Cl)c(Cl)c3)cc2)Oc2cc3c(cc21)C[C@@H](C(=O)N[C@@H](Cc1ccc(-c2ccc(C#N)cc2)cc1)C(=O)O)N(C1CCCC1)C3 (some centres unmarked) [Example 74] |  | 327 nM | 19%
Cc1ccccc1CN1Cc2cc3c(cc2C[C@H]1C(=O)N[C@@H](Cc1ccc(-c2ccc(C#N)cc2)cc1)C(=O)O)NC(=O)C(c1ccc(OCc2ccc(Cl)c(Cl)c2)cc1)O3 (stereo partly drawn) [Example 38, (S)-3-(4′-Cyano-biphenyl-4-yl)-2-{[(S)-3-[4-(3,4-dichloro-benzyloxy)-phenyl]-6-(2-methyl-benzyl)-2-oxo-2,3,5,6,7,8-hexahydro-1H-4-oxa-1,6-diaza-anthracene-7-carbonyl]-amino}-propionic acid] |  | 710 nM | 32%
N#Cc1ccc(-c2ccc(C[C@H](NC(=O)[C@@H]3Cc4cc5c(cc4CN3C(=O)C3CCCCC3)OC(c3ccc(OCc4ccc(Cl)c(Cl)c4)cc3)C(=O)N5)C(=O)O)cc2)cc1 (stereo partly drawn) [Example 25, (S)-3-(4′-Cyano-biphenyl-4-yl)-2-({(S)-6-cyclohexanecarbonyl-3-[4-(3,4-dichloro-benzyloxy)-phenyl]-2-oxo-2,3,5,6,7,8-hexahydro-1H-4-oxa-1,6-diaza-anthracene-7-carbonyl}-amino)-propionic acid] |  | 594 nM | 12%
Cc1cccc(CN2Cc3cc4c(cc3C[C@H]2C(=O)N[C@@H](Cc2ccc(-c3ccc(C#N)cc3)cc2)C(=O)O)NC(=O)C(c2ccc(OCc3ccc(Cl)c(Cl)c3)cc2)O4)n1 (stereo partly drawn) [Example 44, (S)-3-(4′-Cyano-biphenyl-4-yl)-2-{[(S)-3-[4-(3,4-dichloro-benzyloxy)-phenyl]-6-(6-methyl-pyridin-2-ylmethyl)-2-oxo-2,3,5,6,7,8-hexahydro-1H-4-oxa-1,6-diaza-anthracene-7-carbonyl]-amino}-propionic acid] |  | 1000 nM | 25%
N#Cc1ccc(-c2ccc(C[C@H](NC(=O)[C@@H]3Cc4cc5c(cc4CN3C(=O)c3cccs3)OC(c3ccc(OCc4ccc(Cl)c(Cl)c4)cc3)C(=O)N5)C(=O)O)cc2)cc1 (stereo partly drawn) [Example 28, (S)-3-(4′-Cyano-biphenyl-4-yl)-2-{[(S)-3-[4-(3,4-dichloro-benzyloxy)-phenyl]-2-oxo-6-(thiophene-2-carbonyl)-2,3,5,6,7,8-hexahydro-1H-4-oxa-1,6-diaza-anthracene-7-carbonyl]-amino}-propionic acid] |  | 398 nM | 29%
N#Cc1ccc(-c2ccc(C[C@H](NC(=O)[C@@H]3Cc4cc5c(cc4CN3Cc3nccs3)OC(c3ccc(OCc4cccc(Cl)c4)cc3)C(=O)N5)C(=O)O)cc2)cc1 (stereo partly drawn) [Example 67, (S)-2-({(S)-3-[4-(3-Chloro-benzyloxy)-phenyl]-2-oxo-6-thiazol-2-ylmethyl-2,3,5,6,7,8-hexahydro-1H-4-oxa-1,6-diaza-anthracene-7-carbonyl}-amino)-3-(4′-cyano-biphenyl-4-yl)-propionic acid] |  | 1150 nM | 55%
N#Cc1ccc(-c2ccc(C[C@H](NC(=O)[C@@H]3Cc4cc5c(cc4CN3C(=O)c3cccc4ccccc34)OC(c3ccc(OCc4ccc(Cl)c(Cl)c4)cc3)C(=O)N5)C(=O)O)cc2)cc1 (stereo partly drawn) [Example 26, (S)-3-(4′-Cyano-biphenyl-4-yl)-2-{[(S)-3-[4-(3,4-dichloro-benzyloxy)-phenyl]-6-(naphthalene-1-carbonyl)-2-oxo-2,3,5,6,7,8-hexahydro-1H-4-oxa-1,6-diaza-anthracene-7-carbonyl]-amino}-propionic acid] |  | 1100 nM | 14%
N#Cc1ccc(-c2ccc(C[C@H](NC(=O)[C@@H]3Cc4cc5c(cc4CN3CC#Cc3ccsc3)OC(c3ccc(OCc4ccc(Cl)c(Cl)c4)cc3)C(=O)N5)C(=O)O)cc2)cc1 (stereo partly drawn) [Example 56, (S)-3-(4′-Cyano-biphenyl-4-yl)-2-{[(S)-3-[4-(3,4-dichloro-benzyloxy)-phenyl]-2-oxo-6-(3-thiophen-3-yl-prop-2-ynyl)-2,3,5,6,7,8-hexahydro-1H-4-oxa-1,6-diaza-anthracene-7-carbonyl]-amino}-propionic acid] |  | 370 nM | 40.1%
Cc1cccc(C(=O)N2Cc3cc4c(cc3C[C@H]2C(=O)N[C@@H](Cc2ccc(-c3ccc(C#N)cc3)cc2)C(=O)O)NC(=O)C(c2ccc(OCc3ccc(Cl)c(Cl)c3)cc2)O4)c1 (stereo partly drawn) [Example 21, (S)-3-(4′-Cyano-biphenyl-4-yl)-2-{[(S)-3-[4-(3,4-dichloro-benzyloxy)-phenyl]-6-(3-methyl-benzoyl)-2-oxo-2,3,5,6,7,8-hexahydro-1H-4-oxa-1,6-diaza-anthracene-7-carbonyl]-amino}-propionic acid] |  | 399 nM | 70.3%
CC(C)(C)OC(=O)N1Cc2cc3c(cc2C[C@H]1C(=O)N[C@@H](Cc1ccc(-c2ccc(C#N)cc2)cc1)C(=O)O)NC(=O)C(c1ccc(OCc2cnc(Cl)c(Cl)c2)cc1)O3 (stereo partly drawn) [Example 63, (S)-7-[(S)-1-Carboxy-2-(4′-cyano-biphenyl-4-yl)-ethylcarbamoyl]-3-[4-(5,6-dichloro-pyridin-3-ylmethoxy)-phenyl]-2-oxo-1,2,3,5,7,8-hexahydro-4-oxa-1,6-diaza-anthracene-6-carboxylic acid tert-butyl ester] |  | 476 nM | 23%

Further lines, results first:

% binding vs [125I]GLP-1 (human GLP-1 receptor) | EC50 [1] | Emax [1] | SMILES
60% |  |  | CC[C@H](c1ccccc1)N1Cc2cc3c(cc2C[C@H]1C(=O)N[C@@H](Cc1ccc(-c2ccc(C#N)cc2)cc1)C(=O)O)N(C)C(=O)[C@H](c1ccc(OCc2ccc(Cl)c(Cl)c2)cc1)O3 [Example 88, (S)-3-(4′-Cyano-biphenyl-4-yl)-2-{[(3S,7S)-3-[4-(3,4-dichloro-benzyloxy)-phenyl]-1-methyl-2-oxo-6-((R)-1-phenyl-propyl)-2,3,5,6,7,8-hexahydro-1H-4-oxa-1,6-diaza-anthracene-7-carbonyl]-amino}-propionic acid]
65% | 364 nM | 49% | CC[C@@H](c1ccccc1)N1Cc2cc3c(cc2C[C@H]1C(=O)N[C@@H](Cc1ccc(-c2ccc(F)cc2)cc1)C(=O)O)N(C)C(=O)[C@H](c1ccc(OCc2ccc(Cl)c(Cl)c2)cc1)O3 [Example 95, (S)-2-{[(3S,7S)-3-[4-(3,4-Dichloro-benzyloxy)-phenyl]-1-methyl-2-oxo-6-((S)-1-phenyl-propyl)-2,3,5,6,7,8-hexahydro-1H-4-oxa-1,6-diaza-anthracene-7-carbonyl]-amino}-3-(4′-fluoro-biphenyl-4-yl)-propionic acid]
44% |  |  | CC[C@H](c1ccccc1)N1Cc2cc3c(cc2C[C@H]1C(=O)N[C@@H](Cc1ccc(-c2ccc(C#N)cc2)cc1)C(=O)O)N(C)C(=O)[C@@H](c1ccc(OCc2ccc(Cl)c(Cl)c2)cc1)O3 [Example 89]
 | 138 nM | 31% | CC[C@@H](c1ccccc1)N1Cc2cc3c(cc2C[C@H]1C(=O)N[C@@H](Cc1ccc(-c2ccc(Cl)cc2)cc1)C(=O)O)N(C)C(=O)[C@H](c1ccc(OCc2ccc(Cl)c(Cl)c2)cc1)O3 [Example 93, (S)-3-(4′-Chloro-biphenyl-4-yl)-2-{[(3S,7S)-3-[4-(3,4-dichloro-benzyloxy)-phenyl]-1-methyl-2-oxo-6-((S)-1-phenyl-propyl)-2,3,5,6,7,8-hexahydro-1H-4-oxa-1,6-diaza-anthracene-7-carbonyl]-amino}-propionic acid]
 | 1000 nM | 28% | O=C1Nc2cc3c(cc2OC1c1ccc(OCc2ccc(Cl)c(Cl)c2)cc1)CN(C(=O)c1ccccc1)[C@H](C(=O)N[C@@H](Cc1ccc(Oc2ccncc2)cc1)C(=O)O)C3 (stereo partly drawn) [Example 99, (S)-2-({(S)-6-Benzoyl-3-[4-(3,4-dichloro-benzyloxy)-phenyl]-2-oxo-2,3,5,6,7,8-hexahydro-1H-4-oxa-1,6-diaza-anthracene-7-carbonyl}-amino)-3-[4-(pyridin-4-yloxy)-phenyl]-propionic acid]
 | 70 nM | 25% | CC(=O)Nc1nc(C)c(S(=O)(=O)N2Cc3cc4c(cc3C[C@H]2C(=O)N[C@@H](Cc2ccc(-c3ccc(C#N)cc3)cc2)C(=O)O)NC(=O)C(c2ccc(OCc3ccc(Cl)c(Cl)c3)cc2)O4)s1 (single isomer, unassigned) [Example 81]
